# Results from ChEMBL document CHEMBL4261594, “Unexpected AChE inhibitory activity of (2E)α,β-unsaturated fatty acids” (Bioorg Med Chem Lett, 2018).
# Experiments:
# [1] = target: T1, Acetylcholinesterase (Electrophorus electricus, UniProt O42275); assay: Inhibition of electric eel AChE using acetylthiocholine iodide as substrate preincubated for 20 mins followed by substrate addition and measured at 1 min intervals for 30 mins by Ellman's method
# [2] = target: T1, Acetylcholinesterase; assay: Mixed type inhibition of electric eel AChE using acetylthiocholine iodide as substrate preincubated for 20 mins followed by substrate addition and measured at 1 min intervals for 30 mins by Cornish-Bowden plot analysis
# [3] = target: T1, Acetylcholinesterase; assay: Mixed type inhibition of electric eel AChE using acetylthiocholine iodide as substrate preincubated for 20 mins followed by substrate addition and measured at 1 min intervals for 30 mins by Dixon plot analysis
# T1 sequence (O42275 whole entry): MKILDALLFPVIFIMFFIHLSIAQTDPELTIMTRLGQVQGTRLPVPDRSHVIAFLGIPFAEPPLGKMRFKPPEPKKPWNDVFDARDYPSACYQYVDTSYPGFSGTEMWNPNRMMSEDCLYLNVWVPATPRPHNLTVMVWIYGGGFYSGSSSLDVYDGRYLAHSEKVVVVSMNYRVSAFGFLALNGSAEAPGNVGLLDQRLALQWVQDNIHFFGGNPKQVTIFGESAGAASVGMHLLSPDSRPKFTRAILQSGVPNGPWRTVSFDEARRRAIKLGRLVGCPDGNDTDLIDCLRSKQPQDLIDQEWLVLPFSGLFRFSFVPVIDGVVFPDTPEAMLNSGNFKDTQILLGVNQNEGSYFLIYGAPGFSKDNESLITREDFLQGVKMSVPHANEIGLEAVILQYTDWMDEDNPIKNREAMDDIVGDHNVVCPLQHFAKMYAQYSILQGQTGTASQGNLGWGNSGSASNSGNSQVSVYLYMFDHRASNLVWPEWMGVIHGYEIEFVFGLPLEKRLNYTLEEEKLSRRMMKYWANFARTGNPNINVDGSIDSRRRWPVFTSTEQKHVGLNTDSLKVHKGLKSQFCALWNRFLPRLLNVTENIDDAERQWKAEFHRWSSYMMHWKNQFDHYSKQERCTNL
SMILES,IC50 ([1]; read-out: IC50),Ki [2],Ki [3],IC50 [1]
CCCCCCCCCCCCCCCCCC(=O)O [STEARIC ACID],7.5 µM,3.62 µM,4.4 µM,
CCCCCCCCCCCCC/C=C/C(=O)O,7.9 µM,,,
CCCCCCCCCCCCCCCCCCCCCC(=O)O [BEHENIC ACID],,,,Nd(Insoluble)
CCCCCCCCCCCCCCC/C=C/C(=O)O,4.3 µM,5.51 µM,3.21 µM,
CCCCCCCCCCCCCCCC(=O)O [PALMITIC ACID],10.1 µM,,,
CCCCCCCCCCCCCCCCC/C=C/C(=O)O,5 µM,7.15 µM,1.51 µM,
CCCCCCCCCCCCCCCCCCCC(=O)O [ARACHIDIC ACID],12.8 µM,,,
CCCCCCCCCCCCCCCCCCC/C=C/C(=O)O,11.7 µM,,,
